# Target: HCV NS5B RNA dependent RNA polymerase (NS5BCΔ21) (Hepatitis C virus genotype 1b, UniProt P26663)
# Experiment: HCV NS5B RdRp primer dependent elongation
# Assay type: biochemical
# Conditions: not given
row,SMILES,IC50 [µM]
1,"CCCCNC(=S)NNC(=O)CC1(CC)OCCc2c1[nH]c1c(CC)cccc21 (centres unmarked) [Compound 3d, 1-[2-(1,8-Diethyl-1,3,4,9-tetrahydropyrano[3,4-b]indole-1-yl)acetyl]-4-butyl thiosemicarbazide]",29.2 ± 1.4

# Same assay, conditions: read-out: % Inhibition (100 μM) of HCV NS5B RdRp activity
row,SMILES,inhibition at 100 µM [%]
1,"CCc1cccc2c3c([nH]c12)C(CC)(CC(=O)O)OCC3 (racemic) [Etodolac, (R,S) 2-[1,8-diethyl-1,3,4-tetrahydropyrano (3,4-b)indole-1-yl]acetic acid, reference compound]",~10
2,"CCNC(=S)NNC(=O)CC1(CC)OCCc2c1[nH]c1c(CC)cccc21 (centres unmarked) [Compound 3b, 1-[2-(1,8-Diethyl-1,3,4,9-tetrahydropyrano[3,4-b]indole-1-yl)acetyl]-4-ethyl thiosemicarbazide]",49.9 ± 0.3
3,"CCCNC(=S)NNC(=O)CC1(CC)OCCc2c1[nH]c1c(CC)cccc21 (centres unmarked) [Compound 3c, 1-[2-(1,8-Diethyl-1,3,4,9-tetrahydropyrano[3,4-b]indole-1-yl)acetyl]-4-propyl thiosemicarbazide]",34.6 ± 1.1
4,"CCCCNC(=S)NNC(=O)CC1(CC)OCCc2c1[nH]c1c(CC)cccc21 (centres unmarked) [Compound 3d, 1-[2-(1,8-Diethyl-1,3,4,9-tetrahydropyrano[3,4-b]indole-1-yl)acetyl]-4-butyl thiosemicarbazide]",68.7 ± 0.9
5,"CCc1cccc2c3c([nH]c12)C(CC)(CC(=O)NNC(=S)NCc1ccccc1)OCC3 (centres unmarked) [Compound 3f, 1-[2-(1,8-Diethyl-1,3,4,9-tetrahydropyrano[3,4-b]indole-1-yl)acetyl]-4-benzyl thiosemicarbazide]",23.4 ± 1.8
6,"CCc1cccc2c3c([nH]c12)C(CC)(CC(=O)NNC(=S)Nc1ccccc1)OCC3 (centres unmarked) [Compound 3g, 1-[2-(1,8-Diethyl-1,3,4,9-tetrahydropyrano[3,4-b]indole-1-yl)acetyl]-4-phenyl thiosemicarbazide]",38.9 ± 0.9
7,"CCc1cccc2c3c([nH]c12)C(CC)(CC(=O)NNC(=S)NC1CCCCC1)OCC3 (centres unmarked) [Compound 3h, 1-[2-(1,8-Diethyl-1,3,4,9-tetrahydropyrano[3,4-b]indole-1-yl)acetyl]-4-cyclohexyl thiosemicarbazide]",47.4 ± 0.9
